Test results as given in PubChem BioAssay (NCI).
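Protocol summary: plate cells (96-well), add compound at 5 concentrations, incubate 48 h, interpolate endpoints linearly. TGI: total growth inhibition.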

Legend:
Assay in all cases: growth of human tumour cells (NCI), 48 h
[1] = tested on: 786-0 renal
[2] = tested on: A498 renal
[3] = tested on: A549 NSCLC
[4] = tested on: ACHN renal
[5] = tested on: CAKI-1 renal
[6] = tested on: CCRF-CEM leukemia
[7] = tested on: COLO 205 colon
[8] = tested on: DU-145 prostate
[9] = tested on: EKVX NSCLC
[10] = tested on: HCC-2998 colon
[11] = tested on: HCT-116 colon
[12] = tested on: HCT-15 colon
[13] = tested on: HL-60(TB) leukemia
[14] = tested on: HOP-62 NSCLC
[15] = tested on: HOP-92 NSCLC
[16] = tested on: HS 578T breast
[17] = tested on: HT29 colon
[18] = tested on: IGROV1 ovarian
[19] = tested on: K-562 leukemia
[20] = tested on: KM12 colon
[21] = tested on: LOX IMVI melanoma
[22] = tested on: M14 melanoma
[23] = tested on: MALME-3M melanoma
[24] = tested on: MCF7 breast
[25] = tested on: MDA-MB-231 breast
[26] = tested on: MDA-MB-435
[27] = tested on: MDA-N
[28] = tested on: MOLT-4 leukemia
[29] = tested on: NCI-H226 lung
[30] = tested on: NCI-H23 lung
[31] = tested on: NCI-H460 lung
[32] = tested on: NCI-H522 lung
[33] = tested on: NCI/ADR-RES ovarian
[34] = tested on: OVCAR-3 ovarian
[35] = tested on: OVCAR-4 ovarian
[36] = tested on: OVCAR-5 ovarian
[37] = tested on: OVCAR-8 ovarian
[38] = tested on: PC-3 prostate
[39] = tested on: RPMI-8226 leukemia
[40] = tested on: RXF 393 renal
[41] = tested on: SF-268 CNS
[42] = tested on: SF-295 CNS
[43] = tested on: SF-539 CNS
[44] = tested on: SK-MEL-2 melanoma
[45] = tested on: SK-MEL-28 melanoma
[46] = tested on: SK-MEL-5 melanoma
[47] = tested on: SK-OV-3 ovarian
[48] = tested on: SN12C renal
[49] = tested on: SNB-19 CNS
[50] = tested on: SR leukemia
[51] = tested on: SW-620 colon
[52] = tested on: T-47D breast
[53] = tested on: U251 CNS
[54] = tested on: UACC-257 melanoma
[55] = tested on: UACC-62 melanoma
[56] = tested on: UO-31 renal
[57] = tested on: BT-549 breast
[58] = tested on: SNB-75 CNS
[59] = tested on: TK-10 renal

Measured: TGI

c1cc(NC2=NCCO2)c2c(c1)OCO2
> 100 µM: [1] | [2] | [3] | [4] | [5] | [6] | [7] | [8] | [9] | [10] | [11] | [12] | [13] | [14] | [15] | [16] | [17] | [18] | [19] | [20] | [21] | [22] | [23] | [24] | [25] | [26] | [27] | [28] | [29] | [30] | [31] | [32] | [33] | [34] | [35] | [36] | [37] | [38] | [39] | [40] | [41] | [42] | [43] | [44] | [45] | [46] | [47] | [48] | [49] | [50] | [51] | [52] | [53] | [54] | [55] | [56]

COc1ccc(C(c2ccc3c(c2)OCO3)N2C(=O)CCC2C(=O)O)cc1 (stereo not drawn)
> 100 µM: [1] | [2] | [3] | [4] | [57] | [5] | [6] | [7] | [8] | [9] | [10] | [11] | [12] | [13] | [14] | [15] | [17] | [18] | [19] | [20] | [21] | [22] | [23] | [24] | [25] | [26] | [27] | [28] | [29] | [30] | [31] | [32] | [33] | [34] | [35] | [36] | [37] | [38] | [39] | [41] | [42] | [43] | [44] | [45] | [46] | [47] | [48] | [49] | [58] | [50] | [51] | [52] | [59] | [53] | [54] | [55] | [56]
